What was measured:
[1] = target: T1, BCRP (Homo sapiens, UniProt Q9UNQ0)
T1 construct: gene ABCG2
T1 sequence (Q9UNQ0 1-655): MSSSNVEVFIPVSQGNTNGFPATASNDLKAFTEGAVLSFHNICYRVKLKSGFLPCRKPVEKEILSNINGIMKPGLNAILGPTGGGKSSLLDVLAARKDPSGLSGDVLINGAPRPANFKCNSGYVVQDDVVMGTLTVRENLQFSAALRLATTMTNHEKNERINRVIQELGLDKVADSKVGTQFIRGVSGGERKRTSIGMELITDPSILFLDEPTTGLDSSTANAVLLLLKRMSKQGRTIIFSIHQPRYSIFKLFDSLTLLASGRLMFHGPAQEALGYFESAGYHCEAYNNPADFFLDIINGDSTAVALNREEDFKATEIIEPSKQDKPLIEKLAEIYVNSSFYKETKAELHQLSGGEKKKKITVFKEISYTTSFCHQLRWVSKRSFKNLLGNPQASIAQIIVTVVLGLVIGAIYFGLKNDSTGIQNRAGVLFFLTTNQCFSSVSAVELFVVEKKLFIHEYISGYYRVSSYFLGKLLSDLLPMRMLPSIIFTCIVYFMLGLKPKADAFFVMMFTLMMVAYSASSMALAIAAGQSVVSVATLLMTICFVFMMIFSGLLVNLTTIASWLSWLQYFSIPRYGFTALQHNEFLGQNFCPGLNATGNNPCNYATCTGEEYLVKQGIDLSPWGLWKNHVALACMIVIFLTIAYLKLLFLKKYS

[2] = target: T2, P-gp (Homo sapiens, UniProt P08183); test: inhibition of ceralasertib-stimulated P-gp ATPase in crude membranes
T2 construct: gene ABCB1; crude membrane protein isolated from High Five insect cells
T2 sequence (P08183 whole entry): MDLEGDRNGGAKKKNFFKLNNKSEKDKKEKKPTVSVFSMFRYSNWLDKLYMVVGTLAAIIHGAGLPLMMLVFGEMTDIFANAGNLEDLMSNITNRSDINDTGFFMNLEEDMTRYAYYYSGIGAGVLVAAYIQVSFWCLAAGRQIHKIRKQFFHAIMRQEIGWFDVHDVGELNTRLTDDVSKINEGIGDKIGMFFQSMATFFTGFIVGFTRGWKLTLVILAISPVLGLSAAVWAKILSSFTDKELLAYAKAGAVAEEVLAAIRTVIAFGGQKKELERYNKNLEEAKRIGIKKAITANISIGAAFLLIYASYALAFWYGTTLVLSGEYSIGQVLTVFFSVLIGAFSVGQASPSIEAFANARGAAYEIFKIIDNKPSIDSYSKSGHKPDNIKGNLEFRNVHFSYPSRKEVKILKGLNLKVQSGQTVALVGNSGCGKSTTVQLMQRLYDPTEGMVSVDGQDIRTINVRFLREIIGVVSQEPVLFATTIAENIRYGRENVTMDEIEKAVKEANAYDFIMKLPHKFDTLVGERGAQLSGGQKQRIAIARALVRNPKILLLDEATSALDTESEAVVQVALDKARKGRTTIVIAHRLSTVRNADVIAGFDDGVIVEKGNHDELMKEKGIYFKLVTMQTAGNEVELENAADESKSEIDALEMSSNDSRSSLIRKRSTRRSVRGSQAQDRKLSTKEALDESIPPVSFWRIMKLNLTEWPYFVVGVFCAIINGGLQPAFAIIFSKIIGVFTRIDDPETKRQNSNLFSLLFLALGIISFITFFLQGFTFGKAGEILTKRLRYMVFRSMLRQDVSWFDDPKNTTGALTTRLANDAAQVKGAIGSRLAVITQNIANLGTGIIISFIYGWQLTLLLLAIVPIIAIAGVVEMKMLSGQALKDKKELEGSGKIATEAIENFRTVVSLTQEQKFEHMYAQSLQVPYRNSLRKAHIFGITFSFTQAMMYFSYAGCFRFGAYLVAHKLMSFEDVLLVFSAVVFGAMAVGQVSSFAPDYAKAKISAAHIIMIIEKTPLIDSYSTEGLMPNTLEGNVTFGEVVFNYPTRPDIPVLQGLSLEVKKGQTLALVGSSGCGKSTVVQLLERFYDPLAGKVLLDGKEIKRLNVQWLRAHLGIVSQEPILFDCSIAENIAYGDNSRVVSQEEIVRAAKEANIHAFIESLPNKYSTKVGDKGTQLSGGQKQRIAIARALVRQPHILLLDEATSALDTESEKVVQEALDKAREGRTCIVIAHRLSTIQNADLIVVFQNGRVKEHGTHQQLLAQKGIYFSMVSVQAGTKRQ

Row | SMILES | radiolabelled efflux/accumulation in NCI-H460/TPT10 cells, reversed by Ko143 [1] | inhibition of ceralasertib-stimulated P-gp ATPase in crude membranes [2]
1 | O=C1c2c(O)ccc(O)c2C(=O)c2c(NCCNCCO)ccc(NCCNCCO)c21 [mitoxantrone] | BCRP-overexpressing NCI-H460/TPT10 cells have decreased intracellular level of [^3H]-mitoxantrone, which can be reversed by Ko143 | 
2 | CN1CCC(COc2cnc(-c3cccc(Cn4nc(-c5cccc(C#N)c5)ccc4=O)c3)nc2)CC1 [tepotinib] |  | Tepotinib, a P-gp ATPase inhibitor, was able to significantly block the activation caused by ceralasertib.

Source: PMC11096521 (Frontiers in Pharmacology, 2024)
